Test: "true hits" assay alpha screen signal
Settings: indicates false positive

Compound: Nc1c(S(=O)(=O)O)cc(Nc2ccc(Nc3nc(Cl)nc(Nc4cccc(S(=O)(=O)O)c4)n3)c(S(=O)(=O)O)c2)c2c1C(=O)c1ccccc1C2=O [Reactive blue 2]
- inhibition of the "true hits" assay alpha screen signal: greater than 50%

From publication PMC4744088 (Journal of biomolecular screening, 2015)
